Counter-ions that a name gives are not always drawn.

The target of the experiment is T1, Progesterone Receptor (PR) (Homo sapiens, UniProt P06401).
T1 construct: endogenous in cells; host or cells: T47D human breast mammary carcinoma cells
T1 sequence (P06401 1-933): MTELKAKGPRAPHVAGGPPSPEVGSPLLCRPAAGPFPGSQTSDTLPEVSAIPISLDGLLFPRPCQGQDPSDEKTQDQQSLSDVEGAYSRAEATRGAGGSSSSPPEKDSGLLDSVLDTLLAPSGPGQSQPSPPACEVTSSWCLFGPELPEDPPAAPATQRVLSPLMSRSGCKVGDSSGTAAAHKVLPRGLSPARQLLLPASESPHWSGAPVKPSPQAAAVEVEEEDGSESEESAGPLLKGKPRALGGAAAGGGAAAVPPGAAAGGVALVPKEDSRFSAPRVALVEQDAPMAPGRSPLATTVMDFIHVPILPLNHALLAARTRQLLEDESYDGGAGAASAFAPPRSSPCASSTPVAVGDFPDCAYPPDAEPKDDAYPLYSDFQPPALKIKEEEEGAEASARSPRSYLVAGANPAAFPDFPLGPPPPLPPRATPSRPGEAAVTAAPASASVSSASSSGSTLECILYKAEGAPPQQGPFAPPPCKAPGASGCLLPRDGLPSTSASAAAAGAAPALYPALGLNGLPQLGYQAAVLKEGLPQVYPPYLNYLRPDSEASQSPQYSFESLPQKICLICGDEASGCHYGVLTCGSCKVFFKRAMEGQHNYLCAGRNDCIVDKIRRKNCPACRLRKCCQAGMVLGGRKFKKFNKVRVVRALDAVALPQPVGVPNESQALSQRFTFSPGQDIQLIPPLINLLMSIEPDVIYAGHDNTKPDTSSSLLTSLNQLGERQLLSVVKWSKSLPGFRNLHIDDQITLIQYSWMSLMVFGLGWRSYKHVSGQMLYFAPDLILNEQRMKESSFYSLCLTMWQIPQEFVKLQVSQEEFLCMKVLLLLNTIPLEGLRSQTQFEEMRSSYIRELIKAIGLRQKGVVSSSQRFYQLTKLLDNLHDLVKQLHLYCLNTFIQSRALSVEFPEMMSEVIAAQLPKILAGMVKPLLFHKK
Description: In vitro functional assay for progesterone receptor (PR) antagonists: inhibition of progesterone-induced alkaline phosphatase expression in T47D cells. Type of experiment: cell-based. Particulars: antagonist format, 5 nM progesterone, Ki calculated from IC50 with the Cheng-Prusoff equation. The procedure, abridged: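 Antagonist format: T47D cells (8750/well, phenol red-free DMEM + 5% CS-FCS) given half-log compound dilutions plus 5 nM progesterone (final), incubated overnight (≥16 h) at 37 °C. Alkaline phosphatase read by CSPD chemiluminescence after freeze-thaw lysis; 0.1 μM RU-486 final defines minimum.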
For `CCc1c(-c2ccc(C#N)cc2)nn(C(C)CC)c1C(=O)NC[C@H](C)O` (stereo partly drawn) [Example 108, 1-sec-Butyl-3-(4-cyanophenyl)-4-ethyl-N-[(2S)-2-hydroxypropyl]-1H-pyrazole-5-carboxamide], the Ki was 91.4 nM.

As to `CC(C)n1nc(-c2ccc(C#N)cc2)c(C2CC2)c1C(=O)NCC(C)(C)N` [Example 29, N-(2-amino-2-methylpropyl)-3-(4-cyanophenyl)-4-cyclopropyl-1-isopropyl-1H-pyrazole-5-carboxamide], the Ki was 235 nM.

Consider `CC(C)n1nc(-c2ccc(C#N)cc2)c(C2CC2)c1C(=O)NC1CCOCC1` [Example 43], for which the Ki is 26 nM.

Take `CC(C)n1nc(-c2ccc(C#N)cc2)c(Cl)c1C(=O)NC1CC1` [Example 132]: the Ki was 17.8 nM.

For the compound `Cc1c(-c2ccc(C#N)cc2)nn(C2CCOC2)c1C(=O)NCC(C)(C)O` (racemic) [Example 80, 3-(4-Cyanophenyl)-N-(2-hydroxy-2-methylpropyl)-4-methyl-1-(tetrahydrofuran-3-yl)-1H-pyrazole-5-carboxamide], the Ki was 138 nM.

As for `CNC(=O)CNC(=O)c1c(C2CC2)c(-c2ccc(C#N)c(C)c2)nn1C(C)C` [Example 120, 3-(4-Cyano-3-methylphenyl)-4-cyclopropyl-1-isopropyl-N-[2-(methylamino)-2-oxoethyl]-1H-pyrazole-5-carboxamide], the Ki was 8.66 nM.

On to `Cc1c(-c2ccc(C#N)cc2)nn(C2CCOC2)c1C(=O)NC[C@@H](C)O` (single isomer, unassigned) [Example 79 Diast 2], for which the Ki was 163 nM.

Take `CC(C)n1nc(-c2ccc(C#N)cc2)c(C2CC2)c1C(=O)NCCC1CC1` [Example 54, 3-(4-Cyanophenyl)-4-cyclopropyl-N-(2-cyclopropylethyl)-1-isopropyl-1H-pyrazole-5-carboxamide]: the Ki is 8.45 nM.

Turning to `CCNC(=O)c1c(CC)c(-c2ccc(C#N)cc2)nn1C(C)CC` (racemic) [Example 103, (+/−)-1-sec-Butyl-3-(4-cyanophenyl)-N,4-diethyl-1H-pyrazole-5-carboxamide], the Ki is 12.7 nM.

`CC(C)n1nc(-c2ccc(C#N)cc2)c(C2CC2)c1C(=O)N[C@H]1C[C@@H](O)C1` [Example 32, 3-(4-Cyanophenyl)-4-cyclopropyl-N-(cis-3-hydroxycyclobutyl)-1-isopropyl-1H-pyrazole-5-carboxamide]: the Ki was 34.6 nM.

Regarding `Cc1cc(-c2nn(C(C)C)c(C(=O)NC[C@H](C)O)c2C)ccc1C#N` [Example 63, 3-(4-Cyano-3-methylphenyl)-N-[(2S)-2-hydroxypropyl]-1-isopropyl-4-methyl-1H-pyrazole-5-carboxamide], the Ki was 6.24 nM.

As for `CC(C)n1nc(-c2ccc(C#N)cc2)c(C2CC2)c1C(=O)N[C@H]1CCNC1` [Example 9, 3-(4-Cyanophenyl)-4-cyclopropyl-1-isopropyl-N-[(3S)-pyrrolidin-3-yl]-1H-pyrazole-5-carboxamide hydrochloride], the Ki is 836 nM.

For `CC(C)n1nc(-c2ccc(C#N)cc2)c(C2CC2)c1C(=O)NC1CCC1` [Example 50, 3-(4-Cyanophenyl)-N-cyclobutyl-4-cyclopropyl-1-isopropyl-1H-pyrazole-5-carboxamide], the Ki is 3.59 nM.

With `Cc1c(-c2ccc(C#N)cc2)nn(C2CCOC2)c1C(=O)NCC1CC1` (stereo not drawn) [Example 127], the Ki is 11.3 nM.

With `CC(NC(=O)c1c(C2CC2)c(-c2ccc(C#N)cc2)nn1C(C)C)c1cnn(C)c1` (racemic) [Example 39], the Ki was 17.8 nM.

Regarding `COC(=O)C(C)(C)NC(=O)c1c(C2CC2)c(-c2ccc(C#N)cc2)nn1C(C)C` [Example 27], the Ki is 161 nM.

With `Cc1c(-c2ccc(C#N)cc2)nn(C2CCC2)c1C(=O)NCC(C)(C)O` [Example 74, 3-(4-Cyanophenyl)-1-cyclobutyl-N-(2-hydroxy-2-methylpropyl)-4-methyl-1H-pyrazole-5-carboxamide], the Ki is 18.5 nM.

For the compound `CNC(=O)c1c(C)c(-c2ccc(C#N)cc2)nn1C1CC1` [Example 81, 3-(4-Cyanophenyl)-1-cyclopropyl-N,4-dimethyl-1H-pyrazole-5-carboxamide], the Ki is 61.2 nM.

`CCc1c(-c2ccc(C#N)cc2)nn(C(C)CC)c1C(=O)NC[C@@H](C)O` (mixture of isomers) [Example 107, 1-sec-Butyl-3-(4-cyanophenyl)-4-ethyl-N-[(2R)-2-hydroxypropyl]-1H-pyrazole-5-carboxamide]: the Ki was 63 nM.

Turning to `CCc1c(-c2ccc(C#N)cc2)nn(C(C)CC)c1C(=O)NCC(=O)NC` (single isomer, unassigned) [Example 109 Ent 1, 1-sec-Butyl-3-(4-cyanophenyl)-4-ethyl-N-[2-(methylamino)-2-oxoethyl]-1H-pyrazole-5-carboxamide], the Ki was 99 nM.

Turning to `CC(C)n1nc(-c2ccc(C#N)cc2)c(C2CC2)c1C(=O)NCCC(F)(F)F` [Example 22, 3-(4-Cyanophenyl)-4-cyclopropyl-1-isopropyl-N-(3,3,3-trifluoropropyl)-1H-pyrazole-5-carboxamide], the Ki was 6.67 nM.

Take `Cc1cc(-c2nn(C(C)C)c(C(=O)NC[C@@H](C)O)c2C)ccc1C#N` [Example 64, 3-(4-Cyano-3-methylphenyl)-N-[(2R)-2-hydroxypropyl]-1-isopropyl-4-methyl-1H-pyrazole-5-carboxamide]: the inhibition constant Ki was 10.9 nM.

Take `CC(C)n1nc(-c2ccc(C#N)cc2)c(C2CC2)c1C(=O)NC1CNC(=O)C1` (racemic) [Example 45, (+/−)-3-(4-Cyanophenyl)-4-cyclopropyl-1-isopropyl-N-[(3R)-5-oxopyrrolidin-3-yl]-1H-pyrazole-5-carboxamide]: the Ki is 104 nM.

`CC[C@@H](C)NC(=O)c1c(C2CC2)c(-c2ccc(C#N)cc2)nn1C(C)C` [Example 35, 3-(4-Cyanophenyl)-4-cyclopropyl-1-isopropyl-N-[(1R)-1-methylpropyl]-1H-pyrazole-5-carboxamide]: the Ki was 11.2 nM.

Consider `CC(C)n1nc(-c2ccc(C#N)cc2)c(C2CC2)c1C(=O)N[C@@H]1CCN(S(C)(=O)=O)C1` [Example 13, 3-(4-Cyanophenyl)-4-cyclopropyl-1-isopropyl-N-[(3R)-1-(methylsulfonyl)pyrrolin-3-yl]-1H-pyrazole-5-carboxamide], for which the Ki is 34.8 nM.

`CCc1c(-c2ccc(C#N)cc2)nn(C(C)CC)c1C(=O)NCC(C)(C)O` (racemic) [Example 106, 1-sec-Butyl-3-(4-cyanophenyl)-4-ethyl-N-(2-hydroxy-2-methylpropyl)-1H-pyrazole-5-carboxamide]: the Ki is 23.8 nM.

With `CC(C)n1nc(-c2ccc(C#N)cc2)c(C2CC2)c1C(=O)NCc1ccncn1` [Example 23, 3-(4-Cyanophenyl)-4-cyclopropyl-1-isopropyl-N-(pyrimidin-4-ylmethyl)-1H-pyrazole-5-carboxamide], the Ki was 10.2 nM.

Consider `CNC(=O)CNC(=O)c1c(C2CC2)c(-c2ccc(C#N)cc2)nn1C(C)C` [Example 25, 3-(4-Cyanophenyl)-4-cyclopropyl-1-isopropyl-N-[2-(methylamino)-2-oxoethyl]-1H-pyrazole-5-carboxamide], for which the Ki is 24.5 nM.

Take `CCCNC(=O)c1c(C2CC2)c(-c2ccc(C#N)cc2)nn1C(C)C` [Example 20, 3-(4-Cyanophenyl)-4-cyclopropyl-1-isopropyl-N-propyl-1H-pyrazole-5-carboxamide]: the Ki is 3.78 nM.

Regarding `CC(C)n1nc(-c2ccc(C#N)cc2)c(C2CC2)c1C(=O)NCCN` [Example 28, N-(2-Aminoethyl)-3-(4-cyanophenyl)-4-cyclopropyl-1-isopropyl-1H-pyrazole-5-carboxamide], the Ki was 171 nM.

For `Cc1c(-c2ccc(C#N)cc2)nn(C2CCOC2)c1C(=O)NC(C)C` (single isomer, unassigned) [Example 77 Ent 2, 3-(4-Cyanophenyl)-N-isopropyl-4-methyl-1-(tetrahydrofuran-3-yl)-1H-pyrazole-5-carboxamide], the Ki was 102 nM.

For the compound `CC(C)n1nc(-c2ccc(C#N)cc2)c(C2CC2)c1C(=O)NC1CCC(=O)N(C)C1` (racemic) [Example 41, (+/−)-3-(4-Cyanophenyl)-4-cyclopropyl-1-isopropyl-N-(1-methyl-6-oxopiperidin-3-yl)-1H-pyrazole-5-carboxamide], the Ki was 25 nM.

`CCc1c(-c2ccc(C#N)cc2)nn(C(C)CC)c1C(=O)NCC(C)(C)O` (single isomer, unassigned) [Example 106 Ent 2, 1-sec-Butyl-3-(4-cyanophenyl)-4-ethyl-N-(2-hydroxy-2-methylpropyl)-1H-pyrazole-5-carboxamide]: the Ki is 38.2 nM.
